Consider five compounds from ChEMBL document CHEMBL1128756, “The discovery of CP-96,021 and CP-96,486, balanced, combined, potent and orally active leukotriene D4 (LTD4)/platelet activating factor (PAF) receptor antagonists” (Bioorg Med Chem Lett, 1995).

Each structure is given as a SMILES string.

The test system of assay [1] is Cavia porcellus. The assay is described as follows: In vivo bronchoprotective effect against LTD4 induced bronchoconstriction in guinea pigs after intravenous administration. In kind it is functional.
The target of another assay is T1, Adenosine receptor A1 (Homo sapiens, UniProt P30542).
T1 sequence (P30542 whole entry): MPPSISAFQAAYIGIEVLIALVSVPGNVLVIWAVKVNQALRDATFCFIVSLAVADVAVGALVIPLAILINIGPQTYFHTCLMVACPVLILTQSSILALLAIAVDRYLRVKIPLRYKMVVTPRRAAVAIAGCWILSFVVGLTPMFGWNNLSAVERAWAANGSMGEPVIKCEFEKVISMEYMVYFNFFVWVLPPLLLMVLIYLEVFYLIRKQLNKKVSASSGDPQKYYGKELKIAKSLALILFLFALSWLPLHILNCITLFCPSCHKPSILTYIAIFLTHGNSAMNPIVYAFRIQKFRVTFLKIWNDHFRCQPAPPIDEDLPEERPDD
As to the kind of experiment: Inhibitory concentration against Adenosine A1 receptor.

For the next assay, the target named is Mu-type opioid receptor (Homo sapiens, UniProt P35372). As to the kind of experiment: Inhibitory concentration against Opioid receptor mu 1.
Assay [2] has as its target GABA-A receptor; anion channel. The assay is described as follows: Inhibition of Gamma-aminobutyric acid receptor. In kind it is protein-complex assay.
A further assay concerns the target D(2) dopamine receptor (Homo sapiens, UniProt P14416). The assay is described as follows: Inhibitory concentration against Dopamine receptor D2.
For assay [3], the system named is Cavia porcellus. The assay is described as follows: Combined airway obstructive effect against LTD4 stimulated by aerosolized antigen challenge in guinea pigs after peroral administration. In kind it is functional.
A further assay concerns the target Adrenergic receptor beta (Homo sapiens, UniProt P08588+P07550+P13945). As to the kind of experiment: Inhibitory concentration against Beta adrenergic receptor. In kind it is protein assay.
Assay [4] deals with T2, Adrenergic receptor alpha-1 (Homo sapiens, UniProt P35348+P25100+P35368).
T2 sequence (P35348 whole entry): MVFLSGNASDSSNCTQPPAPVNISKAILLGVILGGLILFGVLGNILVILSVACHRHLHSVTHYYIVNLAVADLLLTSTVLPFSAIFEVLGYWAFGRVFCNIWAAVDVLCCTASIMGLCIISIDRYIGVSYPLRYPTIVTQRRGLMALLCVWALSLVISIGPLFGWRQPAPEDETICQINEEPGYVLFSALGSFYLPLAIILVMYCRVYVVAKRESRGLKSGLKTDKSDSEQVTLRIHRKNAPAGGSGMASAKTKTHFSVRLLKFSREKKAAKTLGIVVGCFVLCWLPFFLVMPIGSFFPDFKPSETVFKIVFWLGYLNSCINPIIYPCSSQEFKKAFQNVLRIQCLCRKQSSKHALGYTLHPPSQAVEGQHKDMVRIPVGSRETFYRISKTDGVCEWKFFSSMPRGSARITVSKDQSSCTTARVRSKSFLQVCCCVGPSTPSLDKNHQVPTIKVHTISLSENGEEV
T2 sequence (P25100 whole entry): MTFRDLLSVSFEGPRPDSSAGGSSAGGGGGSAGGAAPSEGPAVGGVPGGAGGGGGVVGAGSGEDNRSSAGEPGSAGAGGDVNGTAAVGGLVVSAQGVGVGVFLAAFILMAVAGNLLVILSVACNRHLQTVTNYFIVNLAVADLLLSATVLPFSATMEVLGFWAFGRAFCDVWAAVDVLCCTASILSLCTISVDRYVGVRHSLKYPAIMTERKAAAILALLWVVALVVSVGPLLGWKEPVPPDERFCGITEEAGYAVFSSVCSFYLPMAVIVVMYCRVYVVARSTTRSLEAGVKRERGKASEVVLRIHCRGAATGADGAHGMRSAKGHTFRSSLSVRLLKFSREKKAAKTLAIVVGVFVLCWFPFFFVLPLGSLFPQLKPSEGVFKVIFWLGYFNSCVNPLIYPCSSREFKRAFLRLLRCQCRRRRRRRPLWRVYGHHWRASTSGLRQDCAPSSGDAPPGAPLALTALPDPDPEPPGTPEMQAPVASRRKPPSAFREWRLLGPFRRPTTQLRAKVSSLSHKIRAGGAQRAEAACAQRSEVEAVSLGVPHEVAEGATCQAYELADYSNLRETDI
T2 sequence (P35368 whole entry): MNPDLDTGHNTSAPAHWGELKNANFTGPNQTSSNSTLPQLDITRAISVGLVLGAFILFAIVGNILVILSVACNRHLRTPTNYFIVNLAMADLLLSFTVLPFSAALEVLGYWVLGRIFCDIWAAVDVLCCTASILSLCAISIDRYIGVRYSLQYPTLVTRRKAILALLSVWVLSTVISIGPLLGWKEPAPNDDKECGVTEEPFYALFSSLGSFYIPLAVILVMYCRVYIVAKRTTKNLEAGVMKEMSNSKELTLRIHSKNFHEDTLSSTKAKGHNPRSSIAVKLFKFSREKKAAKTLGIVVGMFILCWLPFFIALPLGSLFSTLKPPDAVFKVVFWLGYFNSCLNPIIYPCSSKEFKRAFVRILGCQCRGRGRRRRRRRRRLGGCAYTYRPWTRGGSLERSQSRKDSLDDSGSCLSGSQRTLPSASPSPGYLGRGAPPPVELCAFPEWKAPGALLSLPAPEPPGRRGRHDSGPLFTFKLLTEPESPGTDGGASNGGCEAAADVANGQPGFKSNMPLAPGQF
As to the kind of experiment: Inhibitory concentration against Alpha-1 adrenergic receptor. In kind it is protein assay.

Assay [5] in a line: Inhibitory concentration against 5-hydroxytryptamine 1 receptor.
In a further assay the target is Histamine H1 receptor (Homo sapiens, UniProt P35367). The assay is described as follows: Inhibitory concentration against H1 receptor.
Assay [6] deals with Cavia porcellus. As to the kind of experiment: In vivo bronchoprotective effect against […] induced bronchoconstriction in guinea pigs after intravenous administration. In kind it is functional.
Assay [7] has as its target Muscarinic acetylcholine receptor. As to the kind of experiment: Inhibitory concentration against muscarinic receptor. In kind it is protein assay.
Assay [8] has as its target Serotonin 2 (5-HT2) receptor (Homo sapiens, UniProt P41595+P28223+P28335). As to the kind of experiment: Inhibitory concentration against 5-hydroxytryptamine 2 receptor. In kind it is protein assay.
In assay [9] the target is T3, Adrenergic receptor alpha-2 (Homo sapiens, UniProt P08913+P18825+P18089).
T3 sequence (P08913 whole entry): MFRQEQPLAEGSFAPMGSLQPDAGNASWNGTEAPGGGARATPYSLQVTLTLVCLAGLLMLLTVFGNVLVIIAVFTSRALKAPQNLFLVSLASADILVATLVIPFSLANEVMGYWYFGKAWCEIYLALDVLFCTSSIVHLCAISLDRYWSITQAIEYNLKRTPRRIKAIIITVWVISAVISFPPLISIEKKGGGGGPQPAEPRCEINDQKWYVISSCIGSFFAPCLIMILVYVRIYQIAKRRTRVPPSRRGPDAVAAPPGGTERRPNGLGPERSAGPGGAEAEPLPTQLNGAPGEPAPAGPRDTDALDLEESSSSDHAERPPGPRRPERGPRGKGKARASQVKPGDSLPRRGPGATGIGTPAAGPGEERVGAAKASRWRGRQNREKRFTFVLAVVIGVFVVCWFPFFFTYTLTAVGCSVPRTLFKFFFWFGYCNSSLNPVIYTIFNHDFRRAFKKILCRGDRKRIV
T3 sequence (P18825 whole entry): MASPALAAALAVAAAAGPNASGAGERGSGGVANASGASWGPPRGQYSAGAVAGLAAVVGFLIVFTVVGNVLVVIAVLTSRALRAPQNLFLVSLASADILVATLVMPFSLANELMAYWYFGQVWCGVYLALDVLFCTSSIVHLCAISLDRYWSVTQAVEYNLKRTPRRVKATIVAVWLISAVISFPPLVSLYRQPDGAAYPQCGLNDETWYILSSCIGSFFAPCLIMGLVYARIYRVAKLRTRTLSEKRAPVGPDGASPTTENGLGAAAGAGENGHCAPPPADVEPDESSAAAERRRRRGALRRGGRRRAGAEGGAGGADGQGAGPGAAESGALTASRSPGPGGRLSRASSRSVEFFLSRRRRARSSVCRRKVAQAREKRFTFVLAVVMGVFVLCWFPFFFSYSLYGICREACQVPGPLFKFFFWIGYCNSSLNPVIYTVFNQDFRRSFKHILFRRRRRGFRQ
T3 sequence (P18089 whole entry): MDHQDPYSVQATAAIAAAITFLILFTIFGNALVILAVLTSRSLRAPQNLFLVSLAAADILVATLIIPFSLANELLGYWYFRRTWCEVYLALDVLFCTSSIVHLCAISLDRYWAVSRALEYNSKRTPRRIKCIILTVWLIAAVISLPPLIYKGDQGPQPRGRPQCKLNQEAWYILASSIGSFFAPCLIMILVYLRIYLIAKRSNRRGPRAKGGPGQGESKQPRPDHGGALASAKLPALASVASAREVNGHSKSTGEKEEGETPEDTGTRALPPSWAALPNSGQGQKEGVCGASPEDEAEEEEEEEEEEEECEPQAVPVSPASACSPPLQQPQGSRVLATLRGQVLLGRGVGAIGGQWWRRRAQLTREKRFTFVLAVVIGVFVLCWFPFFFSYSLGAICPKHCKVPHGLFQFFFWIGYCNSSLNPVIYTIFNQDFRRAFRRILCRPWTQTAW
As to the kind of experiment: Inhibitory concentration against Alpha-2 adrenergic receptor. In kind it is protein assay.

For assay [10], the target named is T4, Cysteinyl leukotriene receptor 1 (Cavia porcellus, UniProt Q2NNR5).
T4 sequence (Q2NNR5 whole entry): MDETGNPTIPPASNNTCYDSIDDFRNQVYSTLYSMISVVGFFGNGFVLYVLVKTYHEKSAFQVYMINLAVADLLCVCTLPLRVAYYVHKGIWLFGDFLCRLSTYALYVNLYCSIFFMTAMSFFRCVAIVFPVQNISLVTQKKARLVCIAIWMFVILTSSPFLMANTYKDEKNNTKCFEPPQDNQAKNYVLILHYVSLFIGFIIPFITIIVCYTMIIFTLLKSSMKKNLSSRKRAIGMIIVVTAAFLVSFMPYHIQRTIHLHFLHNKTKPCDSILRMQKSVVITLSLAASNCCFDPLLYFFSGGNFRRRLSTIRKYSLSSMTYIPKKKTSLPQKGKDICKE
The assay is described as follows: Displacement of [3H]leukotriene D4 (LTD4) from receptor in guinea pig lung membranes. In kind it is cell membranes, Membrane.

The test system of assay [11] is Cavia porcellus. As to the kind of experiment: In vivo bronchoprotective effect against PAF induced bronchoconstriction in guinea pigs after intravenous administration. In kind it is functional.
In assay [12] the target is T4, Cysteinyl leukotriene receptor 1. As to the kind of experiment: Displacement of [3H]LTD4 from receptor in guinea pig lung membranes. In kind it is cell membranes, Membrane.

Chain of Mu-type opioid receptor (P35372 whole entry): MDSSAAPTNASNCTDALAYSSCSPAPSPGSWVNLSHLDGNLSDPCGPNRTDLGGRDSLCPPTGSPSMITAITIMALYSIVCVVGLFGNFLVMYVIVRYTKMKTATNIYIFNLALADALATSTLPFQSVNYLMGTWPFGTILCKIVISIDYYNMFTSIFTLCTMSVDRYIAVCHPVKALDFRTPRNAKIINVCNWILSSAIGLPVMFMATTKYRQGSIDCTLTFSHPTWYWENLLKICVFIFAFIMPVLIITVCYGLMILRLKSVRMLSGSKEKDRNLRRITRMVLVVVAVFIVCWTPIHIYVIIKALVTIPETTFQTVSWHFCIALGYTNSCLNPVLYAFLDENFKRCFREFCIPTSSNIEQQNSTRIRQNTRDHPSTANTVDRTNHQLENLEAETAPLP
Chain of D(2) dopamine receptor (P14416 whole entry): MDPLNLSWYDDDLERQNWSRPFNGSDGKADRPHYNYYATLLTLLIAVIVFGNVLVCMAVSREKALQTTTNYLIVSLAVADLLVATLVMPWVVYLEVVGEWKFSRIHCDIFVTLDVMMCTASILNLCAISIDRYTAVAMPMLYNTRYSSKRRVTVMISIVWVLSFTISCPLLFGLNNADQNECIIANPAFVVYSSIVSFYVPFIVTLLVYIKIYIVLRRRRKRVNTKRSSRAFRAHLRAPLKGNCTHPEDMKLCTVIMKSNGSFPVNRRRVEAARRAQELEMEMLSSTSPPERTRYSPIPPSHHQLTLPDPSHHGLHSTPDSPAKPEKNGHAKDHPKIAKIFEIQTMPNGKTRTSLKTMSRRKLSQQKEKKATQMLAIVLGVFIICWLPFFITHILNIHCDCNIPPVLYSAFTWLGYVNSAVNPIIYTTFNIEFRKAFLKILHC
Chain of Histamine H1 receptor (P35367 whole entry): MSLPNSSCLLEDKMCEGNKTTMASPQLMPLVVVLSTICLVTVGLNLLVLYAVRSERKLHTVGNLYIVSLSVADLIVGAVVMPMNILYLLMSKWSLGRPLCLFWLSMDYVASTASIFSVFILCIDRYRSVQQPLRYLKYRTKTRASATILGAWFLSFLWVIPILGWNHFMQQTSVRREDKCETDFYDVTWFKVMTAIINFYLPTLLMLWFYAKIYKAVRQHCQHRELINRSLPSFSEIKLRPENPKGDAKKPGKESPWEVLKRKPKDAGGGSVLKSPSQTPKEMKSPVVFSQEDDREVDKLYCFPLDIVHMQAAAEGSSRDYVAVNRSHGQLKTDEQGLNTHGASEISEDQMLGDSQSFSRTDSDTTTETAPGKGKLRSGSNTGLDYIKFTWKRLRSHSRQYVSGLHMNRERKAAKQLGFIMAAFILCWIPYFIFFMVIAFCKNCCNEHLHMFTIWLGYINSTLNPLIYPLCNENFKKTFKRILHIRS

On to `COc1cc(C(=O)NS(=O)(=O)c2ccccc2C)ccc1Cc1cn(C)c2ccc(NC(=O)OC3CCCC3)cc12` [ZAFIRLUKAST], for which the values for the ED50 in the assay on Cavia porcellus [1] and in the assay on Cavia porcellus [3] were 0.21 mg/kg and 3.5 mg/kg, respectively. Also, the IC50 (at Adenosine receptor A1; on Mu-type opioid receptor; in [2]; on D(2) dopamine receptor; against Adrenergic receptor beta; in assay [4]) was above 10 µM throughout.

`Cc1nc2cnccc2n1-c1ccc(OCc2cccc(/C=C/c3nc4cc(F)ccc4s3)c2)cc1`: the values for the ED50 in the assay with Cavia porcellus [1], in the assay with Cavia porcellus [6] and with Cavia porcellus [3] were 0.46 mg/kg, 0.16 mg/kg and 1.8 mg/kg, respectively. Further, the IC50 (on Adenosine receptor A1; in [5]; on Histamine H1 receptor; against Mu-type opioid receptor; in [2]; in assay [7]) was above 10 µM each time. Besides, the IC50 (in assay [8]; in [9]; against D(2) dopamine receptor; at Adrenergic receptor beta; in assay [4]) was above 10 µM each time. Moreover, in assay [10], affinity was put at a Ki of 0.034 µM.

In the case of `CCOC(=O)C1=C(c2ccc(-n3c(C)nc4cnccc43)cc2)NC(C)=C(C(=O)Nc2ccccn2)C1c1ccccc1Cl` (configuration not stated), the ED50 in the assay with Cavia porcellus [6] stood at 0.33 mg/kg; in the assay with Cavia porcellus [3], 1.9 mg/kg. This compound also gave a Ki in assay [10] above 30 µM.

`Cc1nc2cnccc2n1-c1ccc(OCc2cccc(/C=C/c3ccc4ccccc4n3)c2)cc1`: affinity in assay [10] was put at a Ki of 0.073 µM.

As for `Cc1nc2cnccc2n1-c1ccc(OCc2cccc(/C=C/c3ccc4ccc(Cl)cc4n3)c2)cc1`, the figures for the ED50 with Cavia porcellus [1], with Cavia porcellus [11] and in the assay on Cavia porcellus [3] were 0.27 mg/kg, 0.26 mg/kg and 1.7 mg/kg, respectively. Besides, the IC50 (on Adenosine receptor A1; in [5]; against Histamine H1 receptor; against Mu-type opioid receptor; in assay [2]; in assay [7]) was above 10 µM in each case. Further, the IC50 (in assay [8]; in assay [9]; at D(2) dopamine receptor; against Adrenergic receptor beta; in assay [4]) was above 10 µM throughout. The same compound registered a Ki in [12] of 0.02 µM.
